According to patent US20220062240A1, “METHODS OF TREATING CANCER USING A CLK INHIBITOR” (BioSplice Therapeutics, Inc., priority 2018, published 2022):
Read-outs that look alike come from different tables or passages of the source.

What was measured:
CLK2 = target: T1, CLK2 (Homo sapiens, UniProt P49760); assay: CLK2 kinase activity assay (Z-lyte, Ser/Thr 6 peptide); format: biochemical; details: recombinant CLK2 kinase, ATP 60 μM; read-out: EC50
T1 construct: purchased Thermo Fisher (Life Technologies), Z'-LYTE Kinase Assay Kits
T1 sequence (P49760 whole entry): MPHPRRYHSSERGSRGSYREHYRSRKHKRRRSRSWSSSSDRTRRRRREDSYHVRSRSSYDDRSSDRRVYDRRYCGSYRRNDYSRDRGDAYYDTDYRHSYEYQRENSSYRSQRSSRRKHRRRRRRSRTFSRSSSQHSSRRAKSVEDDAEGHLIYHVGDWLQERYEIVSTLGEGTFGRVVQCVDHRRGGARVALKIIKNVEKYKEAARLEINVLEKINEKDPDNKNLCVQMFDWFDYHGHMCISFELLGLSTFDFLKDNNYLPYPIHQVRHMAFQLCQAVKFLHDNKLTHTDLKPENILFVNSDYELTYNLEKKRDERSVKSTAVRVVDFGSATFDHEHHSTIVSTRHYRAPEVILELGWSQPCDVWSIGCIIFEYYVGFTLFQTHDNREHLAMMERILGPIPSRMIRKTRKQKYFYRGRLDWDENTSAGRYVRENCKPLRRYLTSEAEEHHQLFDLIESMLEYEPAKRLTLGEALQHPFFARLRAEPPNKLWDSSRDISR
Procedure: All reactions were performed in duplicate.

BT-549 = assay: CellTiter-Glo Viability Assay, breast cancer; format: cell-based; details: Homo sapiens, 96 h; BT-549, breast cancer, four days; read-out: EC50
CAMA1 = assay: CellTiter-Glo Viability Assay, breast cancer; format: cell-based; details: Homo sapiens, CAMA-1, 96 h; CAMA1, breast cancer, four days; read-out: EC50
DU4475 = assay: CellTiter-Glo Viability Assay, breast cancer; format: cell-based; details: Homo sapiens, DU-4475, 96 h; DU4475, breast cancer, four days; read-out: EC50
HCC1599 = assay: CellTiter-Glo Viability Assay, breast cancer; format: cell-based; details: Homo sapiens, 96 h; HCC1599, breast cancer, four days; read-out: EC50
MCF7 = assay: CellTiter-Glo Viability Assay, breast cancer; format: cell-based; details: Homo sapiens, 96 h; MCF7, breast cancer, four days; read-out: EC50
MDA-MB-231-Luc = assay: CellTiter-Glo Viability Assay, breast cancer; format: cell-based; details: Homo sapiens, 96 h; MDA-MB-231-Luc, breast cancer, four days; read-out: EC50
T47D = assay: CellTiter-Glo Viability Assay, breast cancer; format: cell-based; details: Homo sapiens, 96 h, breast cancer, four days, read-out: EC50
ZR-75-1 = assay: CellTiter-Glo Viability Assay, breast cancer; format: cell-based; details: Homo sapiens, 96 h; ZR-75-1, breast cancer, four days; read-out: EC50
all 50 cell lines = assay: CellTiter-Glo Viability Assay, average across all cell lines; format: cell-based; details: Homo sapiens; across all 50 cell lines; read-out: average EC50 for inhibition of cancer cell proliferation
In short: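 Proliferation of a multi-tissue human cancer line panel is assessed over four days at 37° C and 5% CO2, seeding 300-3,000 cells/well. Viability is quantified by CellTiter-Glo luminescence, and EC50 values are calculated.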

[1] = system: colorectal cancer (6 cell lines); assay: CellTiter-Glo Viability Assay, colorectal cancer; format: cell-based; details: Homo sapiens, inhibition of cancer cell proliferation
[2] = system: haematopoietic & lymphoid tumors (13 cell lines); assay: CellTiter-Glo Viability Assay, haematopoietic & lymphoid tumors; format: cell-based; details: Homo sapiens, inhibition of cancer cell proliferation
[3] = system: liver cancer (3 cell lines); assay: CellTiter-Glo Viability Assay, liver cancer; format: cell-based; details: Homo sapiens, inhibition of cancer cell proliferation
[4] = system: lung cancer (4 cell lines); assay: CellTiter-Glo Viability Assay, lung cancer; format: cell-based; details: Homo sapiens, inhibition of cancer cell proliferation
[5] = system: ovarian cancer (4 cell lines); assay: CellTiter-Glo Viability Assay, ovarian cancer; format: cell-based; details: Homo sapiens, inhibition of cancer cell proliferation
[6] = system: pancreatic cancer (8 cell lines); assay: CellTiter-Glo Viability Assay, pancreatic cancer; format: cell-based; details: Homo sapiens, inhibition of cancer cell proliferation
[7] = system: prostate cancer (5 cell lines); assay: CellTiter-Glo Viability Assay, prostate cancer; format: cell-based; details: Homo sapiens
CLK3 = CLK3 (Homo sapiens, UniProt P49761); assay: CLK3 kinase activity assay (Z-lyte, Ser/Thr 18 peptide)
Chain of CLK3 (P49761 whole entry): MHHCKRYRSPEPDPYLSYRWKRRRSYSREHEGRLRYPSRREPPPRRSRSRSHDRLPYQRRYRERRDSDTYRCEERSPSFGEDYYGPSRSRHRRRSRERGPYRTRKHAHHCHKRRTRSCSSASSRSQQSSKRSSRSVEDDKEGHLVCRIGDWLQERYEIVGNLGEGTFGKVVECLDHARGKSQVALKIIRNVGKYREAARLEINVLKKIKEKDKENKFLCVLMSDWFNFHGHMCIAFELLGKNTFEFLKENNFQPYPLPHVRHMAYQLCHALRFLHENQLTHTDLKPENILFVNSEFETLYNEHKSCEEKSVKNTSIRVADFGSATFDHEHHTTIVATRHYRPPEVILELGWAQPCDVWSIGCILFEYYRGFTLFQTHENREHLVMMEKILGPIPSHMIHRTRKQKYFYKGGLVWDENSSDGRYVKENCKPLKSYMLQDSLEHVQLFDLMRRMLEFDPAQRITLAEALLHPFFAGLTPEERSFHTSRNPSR

[8] = HCT-116, HCT116 cell line, read-out: Colorectal cancer, EC50 (μM) HCT116
[9] = HT-29, HT29 cell line, read-out: Colorectal cancer, EC50 (μM) HT29
[10] = SW-620, SW620 cell line, read-out: Colorectal cancer, EC50 (μM) SW620
[11] = DLD-1 cell line, read-out: Colorectal cancer, EC50 (μM) DLD-1
[12] = SW48 cell line, read-out: Colorectal cancer, EC50 (μM) SW48
[13] = SW480 cell line, read-out: Colorectal cancer, EC50 (μM) SW480
[14] = DND41, DND-41 cell line, read-out: Haematopoietic & Lymphoid tumors, EC50 (μM) DND-41
[15] = MV4-11, MV-4-11 cell line, read-out: Haematopoietic & Lymphoid tumors, EC50 (μM) MV-4-11
[16] = Rec1, REC-1 cell line, read-out: Haematopoietic & Lymphoid tumors, EC50 (μM) REC-1
[17] = SU-DHL-4, SUDHL4 cell line, read-out: Haematopoietic & Lymphoid tumors, EC50 (μM) SUDHL4
[18] = HL-60 cell line, read-out: Haematopoietic & Lymphoid tumors, EC50 (μM) HL-60
[19] = JM1 cell line, read-out: Haematopoietic & Lymphoid tumors, EC50 (μM) JM1
[20] = JURKAT, Clone E6-1 cell line, read-out: Haematopoietic & Lymphoid tumors, EC50 (μM) JURKAT, Clone E6-1
[21] = JeKo-1 cell line, read-out: Haematopoietic & Lymphoid tumors, EC50 (μM) JeKo-1
[22] = KASUMI-1 cell line, read-out: Haematopoietic & Lymphoid tumors, EC50 (μM) KASUMI-1
[23] = Loucy cell line, read-out: Haematopoietic & Lymphoid tumors, EC50 (μM) Loucy
[24] = MOLT-4 cell line, read-out: Haematopoietic & Lymphoid tumors, EC50 (μM) MOLT-4
[25] = TF-1 cell line, read-out: Haematopoietic & Lymphoid tumors, EC50 (μM) TF-1
[26] = TOLEDO cell line, read-out: Haematopoietic & Lymphoid tumors, EC50 (μM) TOLEDO
[27] = SNU-398, SNU398 cell line, read-out: Liver cancer, EC50 SNU398
[28] = HEPG2 cell line, read-out: Liver cancer, EC50 HEPG2
[29] = PLC/PRF/5 cell line, read-out: Liver cancer, EC50 PLC/PRF/5
[30] = A-427, A427 cell line, read-out: Lung cancer, EC50 (μM) A427
[31] = HCC78, HCC-78 cell line, read-out: Lung cancer, EC50 (μM) HCC-78
[32] = NCI-H460 cell line, read-out: Lung cancer, EC50 (μM) NCI-H460
[33] = NCI-H522 cell line, read-out: Lung cancer, EC50 (μM) NCI-H522
[34] = PA-1, PA1 cell line, read-out: Ovarian cancer, EC50 (μM) PA1
[35] = TOV112D, TOV-112D cell line, read-out: Ovarian cancer, EC50 (μM) TOV-112D
[36] = OV-90 cell line, read-out: Ovarian cancer, EC50 (μM) OV-90
[37] = OVCAR-3 cell line, read-out: Ovarian cancer, EC50 (μM) OVCAR-3
[38] = BXPC-3, BxPC3 cell line, read-out: Pancreatic cancer, EC50 BxPC3
[39] = CAPAN-1, Capan1 cell line, read-out: Pancreatic cancer, EC50 Capan1
[40] = Capan-2, Capan2 cell line, read-out: Pancreatic cancer, EC50 Capan2
[41] = MIA PaCa-2 cell line, read-out: Pancreatic cancer, EC50 MIA PaCa-2
[42] = PANC 05.04 cell line, read-out: Pancreatic cancer, EC50 PANC 05.04
[43] = PANC-1 cell line, read-out: Pancreatic cancer, EC50 PANC-1
[44] = UPAFII cell line, read-out: Pancreatic cancer, EC50 UPAFII
[45] = DU-145, read-out: Prostate cancer EC50 Du-145
[46] = PC-3, PC3 cell line, inhibition of cancer cell proliferation, read-out: Prostate cancer EC50 PC3
[47] = 22Rv1 cell line, inhibition of cancer cell proliferation, read-out: Prostate cancer EC50 22Rv1
[48] = LNCap clone FGC cell line, inhibition of cancer cell proliferation, read-out: Prostate cancer EC50 LNCap clone FGC
[49] = VCaP (Sigma) cell line, inhibition of cancer cell proliferation, read-out: Prostate cancer EC50 VCaP (Sigma)

Cc1ncc(-c2ccc3cnc(NC(=O)c4cnn(C5CCN(C)CC5)c4)cc3c2)o1 [Compound 83]
EC50 (CLK2): 2.9 nM | EC50 (BT-549): 176 nM | EC50 (CAMA1): 304 nM | EC50 (DU4475): 145 nM | EC50 (HCC1599): 99 nM | EC50 (MCF7): 491 nM | EC50 (MDA-MB-231-Luc): 193 nM | EC50 (T47D): 253 nM | EC50 (ZR-75-1): 220 nM | EC50 (all 50 cell lines): 182 nM | EC50 [1, 8]: 0.102 µM | EC50 [1, 9]: 0.182 µM | EC50 [1, 10]: 0.065 µM | EC50 [1, 11]: 0.145 µM | EC50 [1, 12]: 0.058 µM | EC50 [1, 13]: 0.117 µM | EC50 [2, 14]: 0.185 µM | EC50 [2, 15]: 0.033 µM | EC50 [2, 16]: 0.065 µM | EC50 [2, 17]: 0.151 µM | EC50 [2, 18]: 0.409 µM | EC50 [2, 19]: 0.064 µM | EC50 [2, 20]: 0.353 µM | EC50 [2, 21]: 0.064 µM | EC50 [2, 22]: 0.129 µM | EC50 [2, 23]: 0.135 µM | EC50 [2, 24]: 0.196 µM | EC50 [2, 25]: 0.256 µM | EC50 [2, 26]: 0.087 µM | EC50 [3, 27]: 50 nM | EC50 [3, 28]: 107 nM | EC50 [3, 29]: 314 nM | EC50 [4, 30]: 0.275 µM | EC50 [4, 31]: 0.173 µM | EC50 [4, 32]: 0.197 µM | EC50 [4, 33]: 0.105 µM | EC50 [5, 34]: 0.17 µM | EC50 [5, 35]: 0.121 µM | EC50 [5, 36]: 0.234 µM | EC50 [5, 37]: 0.11 µM | EC50 [6, 38]: 254 nM | EC50 [6, 39]: 198 nM | EC50 [6, 40]: 321 nM | EC50 [6, 41]: 91 nM | EC50 [6, 42]: 169 nM | EC50 [6, 43]: 291 nM | EC50 [6, 44]: 140 nM | EC50 [7, 45]: 199 nM | EC50 [7, 46]: 195 nM | EC50 [7, 47]: 140 nM | EC50 [7, 48]: 330 nM | EC50 [7, 49]: 255 nM | EC50 (CLK3): 13.6 nM

CC(C)Nc1cncc(-c2ccc3cnc(NC(=O)c4cn(C5CCN(CCF)CC5)nn4)cc3c2)n1 [Compound 85]
EC50 (CLK2): 4 nM | EC50 (BT-549): 210 nM | EC50 (CAMA1): 399 nM | EC50 (DU4475): 420 nM | EC50 (HCC1599): 94 nM | EC50 (MCF7): 683 nM | EC50 (MDA-MB-231-Luc): > 10000 nM | EC50 (T47D): 635 nM | EC50 (ZR-75-1): 506 nM | EC50 (all 50 cell lines): 880 nM | EC50 [1, 8]: 0.077 µM | EC50 [1, 9]: 0.198 µM | EC50 [1, 10]: 0.067 µM | EC50 [1, 11]: 0.173 µM | EC50 [1, 12]: 0.059 µM | EC50 [1, 13]: 0.136 µM | EC50 [2, 14]: 0.207 µM | EC50 [2, 15]: 0.067 µM | EC50 [2, 16]: 0.082 µM | EC50 [2, 17]: 0.491 µM | EC50 [2, 18]: 0.252 µM | EC50 [2, 19]: 0.175 µM | EC50 [2, 20]: 0.466 µM | EC50 [2, 21]: 0.109 µM | EC50 [2, 22]: 0.209 µM | EC50 [2, 23]: 0.241 µM | EC50 [2, 24]: 0.13 µM | EC50 [2, 25]: 0.226 µM | EC50 [2, 26]: 0.122 µM | EC50 [3, 27]: 96 nM | EC50 [3, 28]: > 10000 nM | EC50 [3, 29]: 350 nM | EC50 [4, 30]: 0.452 µM | EC50 [4, 31]: 0.64 µM | EC50 [4, 32]: 0.564 µM | EC50 [4, 33]: 0.412 µM | EC50 [5, 34]: > 10 µM | EC50 [5, 35]: 0.143 µM | EC50 [5, 36]: 0.562 µM | EC50 [5, 37]: 0.171 µM | EC50 [6, 38]: 527 nM | EC50 [6, 39]: 224 nM | EC50 [6, 40]: 295 nM | EC50 [6, 41]: 148 nM | EC50 [6, 42]: 419 nM | EC50 [6, 43]: 488 nM | EC50 [6, 44]: 135 nM | EC50 [7, 45]: 239 nM | EC50 [7, 46]: 250 nM | EC50 [7, 47]: 414 nM | EC50 [7, 48]: 509 nM | EC50 [7, 49]: 505 nM | EC50 (CLK3): 12 nM
